Data taken from publication PMC8772704, “Quantification of Fosfomycin in Combination with Nine Antibiotics in Human Plasma and Cation-Adjusted Mueller-Hinton II Broth via LCMS” (Antibiotics, 2022).

Key:
[1] = 32-day stability of stock solutions stored at −80 °C; format: physicochemical; conditions: stock solution stored at -80 °C; peak area Day 32 vs Day 1
Method: Stability of stock solutions
All stock solutions of antibiotics and their corresponding stable-isotope variants were measured prior to cold storage at -80 °C and tested at 32 days later.
Stability was determined by comparing the peak area of each drug between its Day 1 and Day 32 measurement. Acceptable criteria for stability was met if the […]

[2] = Long-term storage stability of antibiotics in combination with fosfomycin spiked in plasma/CAMHB (−30 °C, −80 °C); format: physicochemical; conditions: for Mean accuracy (%), Table S15 / Mean accuracy (%), Table S17 / Mean accuracy (%), Table S16 / Mean accuracy (%), Table S18: CAMHB; for Mean accuracy (%), Table S15 / Mean accuracy (%), Table S17 / Mean accuracy (%), Table S16 / Mean accuracy (%), Table S18 / Mean accuracy (%), Table S11 / Mean accuracy (%), Table S13 / Mean accuracy (%), Table S12 / Mean accuracy (%), Table S14: combination with fosfomycin; for Mean accuracy (%), Table S15 / Mean accuracy (%), Table S11: 2 weeks at -30 °C; for Mean accuracy (%), Table S17 / Mean accuracy (%), Table S13: 2 weeks at -80 °C; for Mean accuracy (%), Table S16 / Mean accuracy (%), Table S12: 4 weeks at -30 °C; for Mean accuracy (%), Table S18 / Mean accuracy (%), Table S14: 4 weeks at -80 °C; for Mean accuracy (%), Table S11 / Mean accuracy (%), Table S13 / Mean accuracy (%), Table S12 / Mean accuracy (%), Table S14: plasma
Method: (§1) The stability of fosfomycin in combination with other antibiotics in plasma/CAMHB was evaluated under various operational conditions. Spiked plasma/CAMHB samples were evaluated at 7 h and 15 h in the autosampler at 4 °C. Long-term stability was evaluated up to 4 weeks of antibiotic-spiked plasma/CAMHB samples at LQC, MQC, and HQC concentrations stored at −30 °C and −80 °C.

[3] = Plasma concentrations in four patients on fosfomycin-based combination therapy (pilot clinical feasibility study, LCMS/MS)
Method: For 20 µL of plasma/CAMHB sample, 20 µL of water and 20 µL of stable-isotope as internal standard (IS) were added and vortexed. 180 µL of acetonitrile was added for protein precipitation and subsequently removed by centrifugation (12,700 rpm for 10 min at 25 °C). Finally, 15 µL of the supernatant was diluted with 225 µL formic acid in water (0.1% v/v), and 10 µL was injected for LCMS/MS analysis. For the calibration curve and QCs, 20 µL of the corresponding antibiotic standard working solution was added instead of water.
Samples were analyzed using a Nexera X2 LCMS 8060 system (Shimadzu, Kyoto, Japan). […] Electrospray ionization employing positive and negative ion mode with multiple reaction monitoring was used for analyte quantification (Table S1). Data were acquired and analyzed using Shimadzu LabSolutions (Version 5.97).
The assay method described in this paper has been applied to a pilot clinical feasibility study to evaluate the proportion of patients with sub-optimal β-lactam levels and the need for dose adjustments in infected patients with unpredictable pharmacokinetics. We described a case series of four patients where they received in vitro guided antibiotic combination therapy using a fosfomycin-based combination regimen to treat a carbapenem-resistant Gram-negative bacteria infection. These four patients were recruited into the BLAST-2 study as the combination regimen contains a β-lactam antibiotic. In this case series, two were undergoing intermittent hemodialysis, and two patients had normal renal function. In the two patients on hemodialysis, they were on a dosing regimen of 8 g of fosfomycin on dialysis days (3 g at least 4 h before dialysis session and 5 g after completion of dialysis). The remaining two patients received 8 g of fosfomycin given every 8 h as a prolonged infusion.
Blood samples (2–3 mL from an indwelling catheter) were collected four times over a dosing interval of the β-lactam dosing regimen and centrifuged (10 min at 3000 rpm) (Eppendorf 5425R). The resultant plasma was stored (within 15 min of collection) at −80 °C until assay.

[4] = Autosampler stability at 4 °C of extracted antibiotic-spiked plasma/CAMHB samples; conditions: for Mean accuracy (%), Table S8 / Mean accuracy (%), Table S10: CAMHB extracted samples; for Mean accuracy (%), Table S8 / Mean accuracy (%), Table S7: 7 h autosampler 4 °C; for Mean accuracy (%), Table S10 / Mean accuracy (%), Table S9: 15 h autosampler 4 °C; for Mean accuracy (%), Table S7 / Mean accuracy (%), Table S9: plasma extracted samples
Method: as §1

[5] = HQC: nominal mg/L CAZ 150, FEP 200, PIP 250, ATM 300, MEM 200, DOR 175, LVX 30, CEFT 250, TZB 87.5, TGC 20, AVI 30, FOF 1000
[6] = LQC: nominal 1 mg/L (levofloxacin, avibactam 0.5; fosfomycin 10)
[7] = MQC: nominal mg/L CAZ 75, FEP 100, PIP 150, ATM 150, MEM 100, DOR 87.5, LVX 15, CEFT 125, TZB 43.75, TGC 10, AVI 15, FOF 500

Structure (SMILES)	32 Day Stability (%) [1]	Mean accuracy (%), Table S15 ([2]; HQC (nominal as E15))	Mean accuracy (%), Table S15 ([2]; LQC (nominal as E13))	Mean accuracy (%), Table S15 ([2]; MQC (nominal as E14))	Mean accuracy (%), Table S17 ([2]; HQC (nominal as E15))	Mean accuracy (%), Table S17 ([2]; LQC (nominal as E13))	Mean accuracy (%), Table S17 ([2]; MQC (nominal as E14))	Mean accuracy (%), Table S16 ([2]; HQC (nominal as E15))	Mean accuracy (%), Table S16 ([2]; LQC (nominal as E13))	Mean accuracy (%), Table S16 ([2]; MQC (nominal as E14))	Mean accuracy (%), Table S18 ([2]; HQC (nominal as E15))	Mean accuracy (%), Table S18 ([2]; LQC (nominal as E13))	Mean accuracy (%), Table S18 ([2]; MQC (nominal as E14))	Mean accuracy (%), Table S11 ([2]; HQC (nominal as E15))	Mean accuracy (%), Table S11 ([2]; LQC (nominal as E13))	Mean accuracy (%), Table S11 ([2]; MQC (nominal as E14))	Mean accuracy (%), Table S13 ([2]; HQC (nominal as E15))	Mean accuracy (%), Table S13 ([2]; LQC (nominal as E13))	Mean accuracy (%), Table S13 ([2]; MQC (nominal as E14))	Mean accuracy (%), Table S12 ([2]; HQC (nominal as E15))	other results
CO/N=C(\C(=O)N[C@@H]1C(=O)N2C(C(=O)[O-])=C(C[N+]3(C)CCCC3)CS[C@H]12)c1csc(N)n1 [Cefepime, cefepime]	108.51%	95.3%	100.9%	102.0%	94.8%	108.8%	98.7%	93.2%	91.1%	94.9%	93.2%	107.6%	102.8%	89.3%	98.6%	87.2%	89.0%	102.0%	94.3%	89.6%	Stability verdict (within ±15% of nominal) ([2]; CAMHB samples stored at −30 °C, 4 weeks): instability; Mean accuracy (%), Table S12 ([2]; LQC (nominal as E13)): 100.5%; Mean accuracy (%), Table S12 ([2]; MQC (nominal as E14)): 97.4%; Mean accuracy (%), Table S14 ([2]; HQC (nominal as E15)): 95.7%; Mean accuracy (%), Table S14 ([2]; LQC (nominal as E13)): 111.6%; Mean accuracy (%), Table S14 ([2]; MQC (nominal as E14)): 101.3%; Mean total plasma concentration (range) ([3]; Patient 003, intermittent hemodialysis, cefepime 1 g every 12 h as a 4-h infusion): 21.6 to 157.5 mg/L; Mean accuracy (%), Table S8 ([4]; HQC (nominal as E15)): 96.7%; Mean accuracy (%), Table S8 ([4]; LQC (nominal as E13)): 112.0%; Mean accuracy (%), Table S8 ([4]; MQC (nominal as E14)): 103.5%; Mean accuracy (%), Table S10 ([4]; HQC (nominal as E15)): 101.7%; Mean accuracy (%), Table S10 ([4]; LQC (nominal as E13)): 106.6%; Mean accuracy (%), Table S10 ([4]; MQC (nominal as E14)): 114.1%; Mean accuracy (%), Table S7 [4, 5]: 86.5%; Mean accuracy (%), Table S7 [4, 6]: 94.2%; Mean accuracy (%), Table S7 [4, 7]: 101.1%
C[C@]1(Cn2ccnn2)[C@H](C(=O)O)N2C(=O)C[C@H]2S1(=O)=O [Tazobactam, tazobactam]	93.04%	96.9%	93.8%	90.4%	108.9%	103.8%	103.7%	91.0%	69.7%	84.1%	106.4%	105.4%	103.3%	106.0%	107.9%	104.6%	95.4%	108.8%	104.7%	96.4%	Mean accuracy (%), Table S12 ([2]; LQC (nominal as E13)): 102.0%; Mean accuracy (%), Table S12 ([2]; MQC (nominal as E14)): 98.7%; Mean accuracy (%), Table S14 ([2]; HQC (nominal as E15)): 100.5%; Mean accuracy (%), Table S14 ([2]; LQC (nominal as E13)): 100.7%; Mean accuracy (%), Table S14 ([2]; MQC (nominal as E14)): 101.3%; Mean total plasma concentration (range) ([3]; Patient 001, piperacillin/tazobactam 4.5 g every 6 h as a 1-h infusion): 20.9 to 58.3 mg/L; Mean accuracy (%), Table S8 ([4]; HQC (nominal as E15)): 109.6%; Mean accuracy (%), Table S8 ([4]; LQC (nominal as E13)): 109.4%; Mean accuracy (%), Table S8 ([4]; MQC (nominal as E14)): 107.5%; Mean accuracy (%), Table S10 ([4]; HQC (nominal as E15)): 111.6%; Mean accuracy (%), Table S10 ([4]; LQC (nominal as E13)): 112.3%; Mean accuracy (%), Table S10 ([4]; MQC (nominal as E14)): 107.7%; Mean accuracy (%), Table S7 [4, 5]: 111.3%; Mean accuracy (%), Table S7 [4, 6]: 113.6%; Mean accuracy (%), Table S7 [4, 7]: 104.1%; Mean accuracy (%), Table S9 ([4]; HQC (nominal as E15)): 107.9%; Mean accuracy (%), Table S9 ([4]; LQC (nominal as E13)): 107.0%; Mean accuracy (%), Table S9 ([4]; MQC (nominal as E14)): 98.1%
